Earlier results on 1 molecule are cited in patent publication US8911790B2, “Solid composition containing a hypothiocyanite salt” (Alaxia SAS, priority 2011, dated 2014).

For this data set the following is noted: hypothiocyanite ion, instability of the species.

Turning to `N#CSO` [hypothiocyanite ion, hypothiocyanite], the half-life result is “less than 24 hours”.
